Data published in EPA's ToxRefDB 2.

Assays:
[1] = tested on: rat; conditions: Prenatal developmental toxicity study, sprague dawley, Oral, Gavage/Intubation, dose end: 15 GD
[2] = tested on: rat; conditions: Multigenerational reproductive toxicity study, sprague dawley, Oral, Feed, dose end: 2 generation
[3] = tested on: rat; conditions: Prenatal developmental toxicity study, sprague dawley, Oral, Gavage/Intubation, dose end: 19 GD
[4] = tested on: rat; conditions: Prenatal developmental toxicity study, sprague dawley, Oral, Gavage/Intubation, dose end: 15 GD; remark: listed apart in the source
[5] = tested on: rabbit; conditions: Prenatal developmental toxicity study, new zealand white, Oral, Gavage/Intubation, dose end: 18 GD
[6] = tested on: rat; conditions: Prenatal developmental toxicity study, sprague dawley, Oral, Gavage/Intubation, dose end: 15 GD; remark: listed apart in the source
[7] = tested on: rat; conditions: Prenatal developmental toxicity study, sprague dawley, Oral, Gavage/Intubation, dose end: 15 GD; remark: listed apart in the source
[8] = tested on: rat; conditions: Sub-acute repeat dose toxicity, sprague dawley, Oral, Gavage/Intubation, dose end: 28 day
[9] = group: developmental, developmental / developmental malformation / bone / incomplete ossification
[10] = group: maternal, systemic / in life observation / body weight / body weight gain + systemic / in life observation / food consumption / food consumption + …
[11] = group: offspring, developmental / offspring survival late / lactation index / lactation index + developmental / offspring survival late / viability index / …
[12] = group: parental, systemic / in life observation / body weight / body weight + systemic / in life observation / body weight / body weight gain
[13] = group: parental, systemic / in life observation / body weight / body weight + systemic / in life observation / body weight / body weight gain + systemic / in…
[14] = group: developmental, developmental / developmental malformation / bone / unossified
[15] = group: maternal, reproductive / reproductive performance / postimplantation loss / postimplantation loss + reproductive / reproductive performance / …
[16] = group: developmental, developmental / developmental malformation / bone / full supernumerary + developmental / developmental malformation / diaphragm / …
[17] = group: maternal, systemic / in life observation / body weight / body weight gain + systemic / in life observation / clinical signs / discharge on cageboard…
[18] = group: developmental, developmental / developmental malformation / bone / full supernumerary + developmental / developmental malformation / bone / incomplete …
[19] = group: maternal, reproductive / reproductive performance / postimplantation loss / postimplantation loss + systemic / in life observation / clinical signs / …
[20] = group: developmental, developmental / developmental malformation / bone / delayed ossification + systemic / in life observation / body weight / fetal weight
[21] = group: maternal, systemic / organ weight / liver / nos + reproductive / reproductive performance / resorptions / resorptions + systemic / in life observation…
[22] = group: developmental, developmental / developmental malformation / bone / enlarged fontanel + developmental / developmental malformation / bone / incomplete …
[23] = group: maternal, systemic / in life observation / clinical signs / motor activity + systemic / in life observation / clinical signs / respiration (rales) + …
[24] = group: maternal, reproductive / reproductive performance / estrous cycle / abnormal
[25] = group: systemic, systemic / clinical chemistry / alanine aminotransferase (alt/sgpt) / alanine aminotransferase (alt/sgpt) + systemic / clinical chemistry / …
[26] = group: systemic, systemic / organ weight / uterus / relative to body weight + systemic / organ weight / seminal vesicle / relative to body weight

Work on `CCCCCCC(C)OC(=O)COc1nc(F)c(Cl)c(N)c1Cl` (configuration not stated) [Fluroxypyr-meptyl] yielded an LEL [1, 9] of over 600 mg/kg/day, an LOAEL [1, 9] of over 600 mg/kg/day and an NEL [1, 9] of at least 600 mg/kg/day. The NOAEL [1, 9] was at least 600 mg/kg/day, the LEL [1, 10] was 600 mg/kg/day and the LOAEL [1, 10] was 600 mg/kg/day. The NEL [1, 10] was 300 mg/kg/day and the NOAEL [1, 10] was 300 mg/kg/day.

Work on `CCOC(=O)C1CC(=O)C(=C(O)C2CC2)C(=O)C1` (configuration not stated) [Trinexapac-ethyl] yielded an LEL [2, 11] of 1250 mg/kg/day, an NEL [2, 11] of 592 mg/kg/day and an LEL [2, 12] of 592 mg/kg/day. The LOAEL [2, 12] was 592 mg/kg/day, the NEL [2, 13] was 59.1 mg/kg/day and the NOAEL [2, 13] was 59.1 mg/kg/day.

`CC#N` [Acetonitrile] was tested, and the LEL [3, 14] was 275 mg/kg/day, the LOAEL [3, 14] was over 275 mg/kg/day and the NEL [3, 14] was 190 mg/kg/day. For the same molecule, the NOAEL [3, 14] was at least 275 mg/kg/day, the LEL [3, 15] was 275 mg/kg/day and the LOAEL [3, 15] was over 275 mg/kg/day. For the same molecule, the NEL [3, 15] was 190 mg/kg/day and the NOAEL [3, 15] was at least 275 mg/kg/day.

Work on `CCCCOCCOC(=O)COc1nc(Cl)c(Cl)cc1Cl` [Triclopyr-butotyl] yielded an LEL [4, 16] of 300 mg/kg/day, an LOAEL [4, 16] of over 300 mg/kg/day and an NEL [4, 16] of 100 mg/kg/day. For the same molecule, the NOAEL [4, 16] was at least 300 mg/kg/day, the LEL ([4]; group: maternal, systemic / in life observation / body weight / body weight gain) was 30 mg/kg/day and the LOAEL [4, 17] was over 300 mg/kg/day. The NEL [4, 17] was 5 mg/kg/day, the NOAEL [4, 17] was at least 300 mg/kg/day and the LEL [5, 18] was 100 mg/kg/day. For the same molecule, the LOAEL [5, 18] was 100 mg/kg/day, the NEL [5, 18] was 30 mg/kg/day and the NOAEL [5, 18] was 30 mg/kg/day. The LEL [5, 19] was 100 mg/kg/day, the LOAEL [5, 19] was 100 mg/kg/day and the NEL [5, 19] was 30 mg/kg/day. For the same molecule, the NOAEL [5, 19] was 30 mg/kg/day.

`CC1(C)OC(c2ccco2)CN1C(=O)C(Cl)Cl` (configuration not stated) [Furilazole] was tested, and the LEL [6, 20] was 175 mg/kg/day, the LOAEL [6, 20] was over 175 mg/kg/day and the NEL [6, 20] was 75 mg/kg/day. It also gave an NOAEL [6, 20] of at least 175 mg/kg/day, an LOAEL ([6]; group: maternal, systemic / organ weight / liver / nos) of 75 mg/kg/day and an LEL ([6]; group: maternal, systemic / organ weight / liver / nos + reproductive / reproductive performance / resorptions / resorptions) of 75 mg/kg/day. The NEL [6, 21] was 10 mg/kg/day and the NOAEL [6, 21] was 10 mg/kg/day.

`CC1COC(=O)O1` (configuration not stated) [Propylene carbonate] gave an LEL [7, 22] of 5000 mg/kg/day, an LOAEL [7, 22] of 5000 mg/kg/day and an NEL [7, 22] of 3000 mg/kg/day. For the same molecule, the NOAEL [7, 22] was 3000 mg/kg/day, the LEL [7, 23] was 3000 mg/kg/day and the LOAEL [7, 23] was 3000 mg/kg/day. It also gave an NEL [7, 23] of 1000 mg/kg/day and an NOAEL [7, 23] of 1000 mg/kg/day.

Molecule `CC(=O)N1CCN(c2ccc(OC[C@@H]3CO[C@@](Cn4ccnc4)(c4ccc(Cl)cc4Cl)O3)cc2)CC1` [Ketoconazole] has an LEL [8, 24] of 100 mg/kg/day, an LOAEL [8, 24] of over 100 mg/kg/day and an NEL [8, 24] of 25 mg/kg/day. For the same molecule, the NOAEL [8, 24] was at least 100 mg/kg/day, the LOAEL [8, 25] was over 100 mg/kg/day and the NOAEL [8, 25] was at least 100 mg/kg/day. For the same molecule, the LEL [8, 26] was 6.25 mg/kg/day and the NEL [8, 26] was under 6.25 mg/kg/day.
